Experiments:
Test in all cases: relative viability (nuclei count vs DMSO), 5 days (fraction); higher = more cells survive
[1] = compound: CC(C)Oc1cc(Nc2nc(N[C@@H](C)c3ccc(F)cn3)ncc2Cl)n[nH]1 [AZ23]
Summary of the method: (§1)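 Five library-drug doses spaced by √10 were pinned onto vehicle-anchored 1536-well plates of lung cancer cell lines that had been kept overnight at 37 °C. Cells went 5 days without medium change, then were fixed, permeabilised and Hoechst-stained together, imaged at 4× and counted by MetaXpress. Viability is the ratio of treated-well to vehicle-well nuclei, taken as a median over plates. Plates required control CV below 25% and at least one doubling.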

[2] = compound: CC(C)S(=O)(=O)C1=CC=CC=C1NC2=NC(=NC(=C2Cl)N)NC3=C(C=C(C=C3)N4CCC(CC4)C(=O)N)OC [HG-5-88-01]
Summary of the method: as §1

[3] = compound: CCCCCCCCCCCC1=C(O)C(=O)C=C(O)C1=O [Embelin]
Summary of the method: as §1

[4] = compound: C[C@@H]1CN(CC(=O)Nc2ccc3c(c2)Cc2cccc(-c4cc(=O)cc(N5CCOCC5)o4)c2S3)C[C@H](C)O1
Summary of the method: as §1

[5] = compound: Clc1ccc(Nc2nnc(Cc3ccncc3)c3ccccc23)cc1 [Vatalanib]
Summary of the method: as §1

Cell Line | relative viability ([1]; 0.01 µM) | relative viability ([1]; 0.03162 µM) | relative viability ([1]; 0.3162 µM) | relative viability ([2]; 0.04 µM) | relative viability ([2]; 0.1265 µM) | relative viability ([2]; 0.4 µM) | relative viability ([2]; 1.265 µM) | relative viability ([2]; 4 µM) | relative viability ([3]; 0.08 µM) | relative viability ([3]; 0.8 µM) | relative viability ([3]; 2.53 µM) | relative viability ([3]; 8 µM) | relative viability ([4]; 0.04 µM) | relative viability ([4]; 0.1265 µM) | relative viability ([4]; 0.4 µM) | relative viability ([4]; 4 µM) | relative viability ([5]; 0.04 µM) | relative viability ([5]; 0.1265 µM) | relative viability ([5]; 0.4 µM) | relative viability ([5]; 1.265 µM) | relative viability ([5]; 4 µM)
HCC-15 | 1.21 | 1.02 | 1.07 | 1.07 | 1.02 | 0.901 | 1 | 0.743 | 1.01 | 1.09 | 1.01 | 0.964 | 1.09 | 0.898 | 0.97 | 0.903 | 1.07 | 1.04 | 1.06 | 0.983 | 1.08
HCC-44 | 0.999 | 1.06 | 1.01 | 1.04 | 0.972 | 0.914 | 0.927 | 0.567 | 0.886 | 1.01 | 1.01 | 0.869 | 0.934 | 0.976 | 0.919 | 0.923 | 0.951 | 0.905 | 0.943 | 0.963 | 0.97
HCC-78 | 0.837 | 1.01 | 0.589 | 0.836 | 0.736 | 0.476 | 0.378 | 0.417 | 1.02 | 1.02 | 0.977 | 1.07 | 0.883 | 0.922 | 0.821 | 0.923 | 0.95 | 0.862 | 0.972 | 0.82 | 0.835
HCC-366 | 1.04 | 1.03 | 1.03 | 0.998 | 1.01 | 0.987 | 0.987 | 1.05 | 1.01 | 1.03 | 1.09 | 1.06 | 1.01 | 0.987 | 1.08 | 0.925 | 1.01 | 0.881 | 1.01 | 0.975 | 0.978
HCC-827 | 1.06 | 1.13 | 1.08 | 1.06 | 1.05 | 1.06 | 1.03 | 0.615 | 1.03 | 1.11 | 1.09 | 1.09 | 1.05 | 1.04 | 1.08 | 1.07 | 1.02 | 0.949 | 0.924 | 1.04 | 0.996
HOP-62 | 1.13 | 1.11 | 1.12 | 1.03 | 1.06 | 0.92 | 1.02 | 1.02 | 1.02 | 1.07 | 1.1 | 0.984 | 0.978 | 0.991 | 0.973 | 0.988 | 0.954 | 0.957 | 1.07 | 0.949 | 1.01
IA-LM | 0.91 | 1.12 | 1.07 | 0.959 | 0.984 | 0.85 | 0.715 | 0.704 | 0.932 | 0.981 | 1 | 0.689 | 0.911 | 0.938 | 0.946 | 0.574 | 0.977 | 0.898 | 0.955 | 0.909 | 0.898
LC-2-ad | 1.17 | 1.04 | 1.02 | 1.08 | 0.998 | 1.01 | 0.948 | 0.802 | 0.986 | 1.14 | 1.09 | 0.95 | 1.07 | 0.969 | 0.993 | 0.903 | 1.02 | 0.861 | 0.793 | 0.963 | 0.948
LCLC-97TM1 | 0.998 | 0.915 | 0.873 | 0.98 | 0.922 | 0.807 | 0.838 | 0.291 | 0.906 | 1.15 | 1.17 | 0.971 | – | 0.965 | 0.853 | 1.04 | 0.875 | 0.84 | 0.977 | 0.838 | 1.03
LCLC-103H | 1.04 | 0.993 | 1.08 | 1.04 | 1.04 | 0.86 | 0.96 | 0.657 | 0.999 | 1.06 | 1.04 | 0.8 | 1.01 | 0.903 | 0.793 | 0.926 | 1.05 | 0.932 | 1.01 | 0.993 | 0.977
LK-2 | 0.802 | 1.14 | 0.959 | 0.976 | 0.994 | 0.962 | 0.582 | 0.789 | 1.1 | 1.07 | 1.25 | 0.856 | 0.848 | 0.923 | 0.979 | 1.1 | 0.952 | 0.863 | 0.889 | 1.01 | 0.995
LOU-NH91 | 0.921 | 1.08 | 1.01 | 0.912 | 0.904 | 0.866 | 0.612 | 0.629 | 1.02 | 1.27 | 0.991 | 0.864 | 0.943 | 0.989 | 0.966 | 0.876 | 0.925 | 0.936 | 0.816 | 0.876 | 0.921
LU99A | 1.04 | 0.998 | 0.941 | 0.963 | 0.958 | 0.873 | 1.02 | 0.907 | 1.08 | 1.07 | 1.08 | 0.948 | 0.86 | 1.05 | 1.15 | 0.975 | 1.03 | 1.02 | 1.06 | 0.951 | 0.923
LXF-289 | 1.17 | 1.04 | 1.02 | 1.04 | 1.03 | 0.976 | 0.974 | 0.986 | 1.04 | 1.04 | 1.01 | 1.09 | 0.974 | 1.01 | 1.04 | 0.976 | 1.05 | 0.935 | 1.02 | 0.958 | 1
NCI-H23 | – | 1.07 | 0.887 | 1.03 | 0.993 | 0.959 | 0.824 | 0.392 | 0.987 | 1.07 | 1.03 | 0.705 | 1.08 | 0.923 | 0.943 | 0.96 | 0.948 | 0.833 | 1.04 | 0.961 | 0.853
NCI-H322M | 0.695 | 0.974 | 1.07 | 0.811 | 0.872 | 0.876 | 0.494 | 0.718 | 0.987 | 0.996 | 1.03 | 0.915 | 0.823 | 0.947 | 0.961 | 0.827 | 0.938 | 0.946 | 0.936 | 0.904 | 0.917

From the supplement of paper PMC10307832
